Results on 23 compounds are retold here after patent US7989447B2, “1,5 and 3,6-substituted indole compounds having NOS inhibitory activity” (NeurAxon, Inc., priority 2006, dated 2011).

For assay [1], the target named is human inducible NOS (iNOS) (Homo sapiens, UniProt P35228). Put plainly: iNOS (Human) enzyme assay, radiometric conversion of [3H]L-arginine to [3H]L-citrulline. The conditions noted are these: recombinant human enzyme, 37° C., 45 min. Type of assay: biochemical. The protocol: (§1) Recombinant human inducible NOS (iNOS), human endothelial constitutive NOS (eNOS) or human neuronal constitutive NOS(nNOS) were produced in Baculovirus-infected Sf9 cells (ALEXIS). In a radiometric method, NO synthase activity was determined by measuring the conversion of [^3H]L-arginine to [^3H]L-citrulline. To measure iNOS, 10 μL of enzyme was added to 100 μL of 100 mM HEPES, pH=7,4, containing 1 mM CaCl2, 1 mM EDTA, 1 mM dithiotheitol, 1 μM FMN, 1 μM FAD, 10 μM tetrahydrobiopterin, 120 μM NADPH, and 100 nM CaM. To measure eNOS or nNOS, 10 μL of enzyme was added to 100 μL of 40 mM HEPES, pH=7.4, containing 2.4 mM CaCl2, 1 mM MgCl2, 1 mg/mL BSA, 1 mM EDTA, 1 mM dithiothreitol, 1 μM FMN, 1 μM FAD, 10 μM tetrahydrobiopterin, 1 mM NADPH, and 1.2 μM CaM.
(§2) To measure enzyme inhibition, a 15 μL solution of a test substance was added to the enzyme assay solution, followed by a pre-incubation time of 15 min at RT. The reaction was initiated by addition of 20 μL L-arginine containing 0.25 μCi of [^3H]arginine/mL and 24 μM L-arginine. The total volume of the reaction mixture was 150 μL in every well. The reactions were carried out at 37° C. for 45 min. The reaction was stopped by adding 20 μL of ice-cold buffer containing 100 mM HEPES, 3 mM EGTA, 3 mM EDTA, pH=5.5. [^3H]L-citrulline was separated by DOWEX (ion-exchange resin DOWEX 50 W X 8-400, SIGMA) and the DOWEX was removed by spinning at 12,000 g for 10 min in the centrifuge. An 70 μL aliquot of the supernatant was added to 100 μL of scintillation fluid and the samples were counted in a liquid scintillation counter (1450 Microbeta Jet, Wallac). […] All assays were performed at least in duplicate.

Assay [2] has as its target human endothelial constitutive NOS (eNOS) (Homo sapiens, UniProt P29474). Put plainly: eNOS (Human) enzyme assay, radiometric conversion of [3H]L-arginine to [3H]L-citrulline. The assay is classed as biochemical. The note with it: recombinant human enzyme, 37° C., 45 min. Here is the method: as §1, §2
The target in assay [3] is human neuronal constitutive NOS (nNOS) (Homo sapiens, UniProt P29475). Put plainly: nNOS (Human) enzyme assay, radiometric conversion of [3H]L-arginine to [3H]L-citrulline. The note with it: for Ratio e/n: human eNOS / human nNOS. The assay is classed as biochemical.
Sequence of human neuronal constitutive NOS (nNOS) (P29475 whole entry): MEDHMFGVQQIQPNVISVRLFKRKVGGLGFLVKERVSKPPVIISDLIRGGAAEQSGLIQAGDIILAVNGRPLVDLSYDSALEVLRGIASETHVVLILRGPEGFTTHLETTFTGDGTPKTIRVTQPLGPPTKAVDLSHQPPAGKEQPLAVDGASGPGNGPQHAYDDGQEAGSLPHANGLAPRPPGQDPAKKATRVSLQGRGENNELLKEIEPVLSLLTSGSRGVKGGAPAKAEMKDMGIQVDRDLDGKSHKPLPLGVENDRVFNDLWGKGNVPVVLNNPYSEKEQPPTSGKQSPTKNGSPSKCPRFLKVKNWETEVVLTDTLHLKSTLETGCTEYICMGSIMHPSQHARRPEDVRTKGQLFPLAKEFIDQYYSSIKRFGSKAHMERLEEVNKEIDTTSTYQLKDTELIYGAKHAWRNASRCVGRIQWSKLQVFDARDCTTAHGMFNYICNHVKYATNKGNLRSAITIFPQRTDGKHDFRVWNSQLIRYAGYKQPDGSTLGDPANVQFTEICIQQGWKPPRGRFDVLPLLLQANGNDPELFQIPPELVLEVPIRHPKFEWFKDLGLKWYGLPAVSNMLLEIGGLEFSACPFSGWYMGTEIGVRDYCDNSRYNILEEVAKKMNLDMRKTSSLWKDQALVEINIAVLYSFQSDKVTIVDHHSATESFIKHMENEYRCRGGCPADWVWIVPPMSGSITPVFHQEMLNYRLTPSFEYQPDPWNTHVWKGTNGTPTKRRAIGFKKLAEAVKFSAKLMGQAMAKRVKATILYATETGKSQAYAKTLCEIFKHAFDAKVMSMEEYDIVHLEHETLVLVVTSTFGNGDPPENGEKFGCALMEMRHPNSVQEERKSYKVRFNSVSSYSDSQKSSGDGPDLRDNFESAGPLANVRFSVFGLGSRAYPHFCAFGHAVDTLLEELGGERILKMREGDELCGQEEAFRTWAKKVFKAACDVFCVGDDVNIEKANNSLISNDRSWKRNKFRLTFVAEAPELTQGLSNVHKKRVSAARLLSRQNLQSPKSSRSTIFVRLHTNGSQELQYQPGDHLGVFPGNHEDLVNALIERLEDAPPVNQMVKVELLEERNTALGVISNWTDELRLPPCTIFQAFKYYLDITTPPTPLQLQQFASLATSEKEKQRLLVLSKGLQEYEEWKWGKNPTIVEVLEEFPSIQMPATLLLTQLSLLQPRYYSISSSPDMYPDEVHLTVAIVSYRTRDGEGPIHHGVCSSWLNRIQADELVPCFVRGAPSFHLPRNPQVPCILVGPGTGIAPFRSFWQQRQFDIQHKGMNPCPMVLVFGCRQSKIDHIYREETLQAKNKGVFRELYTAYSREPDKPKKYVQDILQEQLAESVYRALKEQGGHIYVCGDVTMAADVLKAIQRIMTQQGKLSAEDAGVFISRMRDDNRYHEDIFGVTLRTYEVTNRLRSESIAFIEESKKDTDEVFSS
Description: To measure enzyme inhibition, a 15 μL solution of a test substance was added to the enzyme assay solution, followed by a pre-incubation time of 15 min at RT. […] The total volume of the reaction mixture was 150 μL in every well. The reactions were carried out at 37° C. for 45 min. The reaction was stopped by adding 20 μL of ice-cold buffer containing 100 mM HEPES, 3 mM EGTA, 3 mM EDTA, pH=5.5. [^3H]L-citrulline was separated by DOWEX (ion-exchange resin DOWEX 50 W X 8-400, SIGMA) and the DOWEX was removed by spinning at 12,000 g for 10 min in the centrifuge. […] All assays were performed at least in duplicate. Standard deviations were 10% or less.
The subject of assay [4] is rats after L5/L6 spinal nerve ligation. Description: Chung Spinal Nerve Ligation (SNL) model of neuropathic pain, thermal hyperalgesia. Type of assay: in vivo, rat. The note with it: one dose 10 or 60 mg/kg i.p. Here is the method: The efficacy of compound 107 for the treatment of neuropathic pain was assessed using standard animal models predictive of anti-hyperalgesic and anti-allodynic activity induced by a variety of methods.
The experimental designs for the Chung Spinal Nerve Ligation SNL Model assay for neuropathic pain are depicted in FIG. 1. Nerve ligation injury was performed according to the method described by Kim and Chung (Kim and Chung, Pain 50:355-363, 1992). This technique produces signs of neuropathic dysesthesias, including tactile allodynia, thermal hyperalgesia, and guarding of the affected paw. Rats were anesthetized with halothane and the vertebrae over the L4 to S2 region were exposed. The L5 and L6 spinal nerves were exposed, carefully isolated, and tightly ligated with 4-0 silk suture distal to the DRG. After ensuring homeostatic stability, the wounds were sutured, and the animals allowed to recover in individual cages. Sham-operated rats were prepared in an identical fashion except that the L5/L6 spinal nerves were not ligated. […] After a period of recovery following the surgical intervention, rats show enhanced sensitivity to painful and normally non-painful stimuli.

The subject of assay [5] is cardiogenic shock patients. The note with it: randomized trial of 30 patients; reduced from 67%; cited from earlier work.
In assay [6] the test system is patients with persistent shock. The note with it: up to 30 days, 11 patients with persistent shock; cited from earlier work.
The test system of assay [7] is migraine patients. The note with it: single i.v. administration; cited from earlier work.
For assay [8], the system named is migraine patients. The conditions noted are these: open pilot study; cited from earlier work.
Setting [9] is: recombinant human enzyme, 37° C., 45 min, read-out: Human nNOS.

Read-outs that look alike come from different tables or passages of the source.

For the compound `CN1CCCC(n2ccc3cc(NC(=N)c4ccco4)ccc32)CC1` (single isomer, unassigned) [(+)−55], the IC50 was found to be 10 µM in assay [1] and 24.5 µM in assay [2] (read-out: Human eNOS).
For `CN1CCCC1CCn1ccc2cc(NC(=N)c3cccs3)ccc21` (single isomer, unassigned) [(+)−57] the same measures were 22 µM and 3.37 µM.
Take `CN1CCCC(n2ccc3cc(NC(=N)c4ccco4)ccc32)CC1` (single isomer, unassigned) [(−)−55]: the IC50 in assay [1] was 46 µM; in assay [2] (read-out: Human eNOS), 28.5 µM.
For `CN1CCCC1CCn1ccc2cc(NC(=N)c3cccs3)ccc21` (single isomer, unassigned) [(−)−57] the same measures were 1.7 µM and 1.92 µM.
With `CCN(CC)CCn1c(Cc2ccc(OC(F)(F)F)cc2)cc2cc(NC(=N)c3cccs3)ccc21` [Compound 11, N-(1-(2-(Diethylamino)ethyl)-2-(4-(trifluoromethoxy)benzyl)-1H-indol-5-yl)thiophene-2-carboximidamide], the IC50 in assay [1] turned out to be 17 µM; in assay [3] (setting [9]), 0.8 µM; in assay [2] (Human eNOS (μM)), 4.5 µM. Also, the Ratio e/n in assay [3] is reported as 5.62.
On to `CN1CCCC1CCn1c(Cc2ccc(OC(F)(F)F)cc2)cc2cc(NC(=N)c3cccs3)ccc21` (stereo not drawn) [Compound 14, N-(1-(2-(1-methylpyrrolidin-2-yl)ethyl)-2-(4-(trifluoromethoxy)benzyl)-1H-indol-5-yl)thiophene-2-carboximidamide], for which the IC50 in assay [1] amounted to 93 µM; in assay [3] (setting [9]), 0.31 µM; in assay [2] (read-out: Human eNOS), 1.52 µM. The Ratio e/n in assay [3] came to 4.90.
As to `CN1CCCC1CCn1c(-c2ccc([N+](=O)[O-])cc2)cc2cc(NC(=N)c3cccs3)ccc21` (stereo not drawn) [Compound 21, N-(1-(2-(1-methylpyrrolidin-2-yl)ethyl)-2-(4-nitrophenyl)-1H-indol-5-yl)thiophene-2-carboximidamide], the values for the IC50 in assay [1], in assay [3] (setting [9]) and in assay [2] (read-out: Human eNOS) were 52 µM, 1.28 µM and 13.2 µM, respectively.
Turning to `CN1CCCC(n2ccc3cc(NC(=N)c4ccco4)ccc32)CC1` (stereo not drawn) [Compound 54, N-(1-(1-methylazepan-4-yl)-1H-indol-5-yl)furan-2-carboximidamide], the IC50 in assay [1] was determined as 49 µM; in assay [2] (read-out: Human eNOS) it was 38.5 µM.
Consider `CN1CCCC(n2ccc3cc(NC(=N)c4cccs4)ccc32)CC1` (stereo not drawn) [Compound 58, N-(1-(1-methylazepan-4-yl)-1H-indol-5-yl)thiophene-2-carboximidamide], for which the IC50 in assay [1] worked out at 7.6 µM; in assay [3] (setting [9]), 0.12 µM; in assay [2] (read-out: Human eNOS), 11.5 µM. Also, the Ratio e/n in assay [3] amounted to 93.49.
Take `CN1CCCC1CCn1ccc2cc(NC(=N)N[N+](=O)[O-])ccc21` (stereo not drawn) [Compound 59, 1-(1-(2-(1-methylpyrrolidin-2-yl)ethyl)-1H-indol-5-yl)-3-nitroguanidine]: the “Human iNOS (μM)” value in assay [1] is listed as “Not Active”. In assay [3], the Ratio e/n was found to be 6.00. Besides, the IC50 in assay [3] (setting [9]) amounted to 1.44 µM; in assay [2] (read-out: Human eNOS), 8.65 µM.
`N=C(Nc1ccc2c(ccn2C2CN3CCC2CC3)c1)c1cccs1` (stereo not drawn) [Compound 71, N-(1-(Quinuclidin-3-yl)-1H-indol-5-yl)thiophene-2-carboximidamide]: the IC50 was determined as 29 µM in assay [1], 0.36 µM in assay [3] (setting [9]) and 12.1 µM in assay [2] (read-out: Human eNOS). Moreover, in assay [3], the Ratio e/n was determined as 32.79.
As to `CN1C2CCC1CC(n1ccc3cc(NC(=N)c4cccs4)ccc31)C2` (stereo not drawn) [Compound 86, N-(1-(8-methyl-8-azabicyclo[3.2.1]octan-3-yl)-1H-indol-5-yl)thiophene-2-carboximidamide], the IC50 in assay [1] amounted to 11 µM; in assay [3] (setting [9]), 0.76 µM; in assay [2] (read-out: Human eNOS), 18.9 µM. Further, in assay [3], the Ratio e/n was 24.70.
`CN1CC=C(c2c[nH]c3cc(NC(=N)c4cccs4)ccc23)CC1` [Compound 107, N-[3-(1-methyl-1,2,3,6-tetrahydro-pyridin-4-yl)-1H-indol-6-yl]-thiophene-2-carboxamidine]: the IC50 in assay [1] was 12 µM; in assay [3] (setting [9]), 1.1 µM; in assay [2] (read-out: Human eNOS), 29 µM. Besides, the Ratio e/n in assay [3] is on record as 26.36. Besides, in assay [4], the “antihyperalgesic effect (reversal of thermal hyperalgesia)” value is given as “clear antihyperalgesic effect”.
Take `CN1CCC(c2c[nH]c3cc(NC(=N)c4cccs4)ccc23)CC1` [Compound 108, N-[3-(1-methyl-piperidin-4-yl)-1H-indol-6-yl]-thiophene-2-carboxamidine]: the IC50 in assay [1] was determined as 9.3 µM; in assay [3] (setting [9]), 0.71 µM; in assay [2] (read-out: Human eNOS), 17 µM. The Ratio e/n in assay [3] worked out at 23.94.
On to `N=C(Nc1ccc2c(C3CN4CCC3CC4)c[nH]c2c1)c1cccs1` (stereo not drawn) [Compound 112, N-(3-(quinuclidin-3-yl)-1H-indol-6-yl)thiophene-2-carboximidamide], for which the IC50 in assay [1] is 0.4 µM; in assay [3], 1.13 µM; in assay [2] (read-out: Human eNOS) it was 31.4 µM. The Ratio e/n in assay [3] is on record as 27.78.
Consider `CCNC1CCC(c2c[nH]c3cc(NC(=N)c4cccs4)ccc23)CC1` (stereo not drawn) [Compound 129], for which the results for the IC50 in assay [1], in assay [3] (setting [9]) and in assay [2] (read-out: Human eNOS) were 4.2 µM, 0.26 µM and 14.9 µM, respectively. Besides, the Ratio e/n in assay [3] is reported as 57.08.
Taken in the same sequence, the figures for `CCNC1CC=C(c2c[nH]c3cc(NC(=N)c4cccs4)ccc23)CC1` (stereo not drawn) [Compound 132, N-(3-(4-(Ethylamino)cyclohex-1-enyl)-1H-indol-6-yl)thiophene-2-carboximidamide] were 1.93 µM, 0.73 µM, 17.4 µM and 23.83.
Taken in the same sequence, the figures for `CCCN[C@H]1CC[C@@H](c2c[nH]c3cc(NC(=N)c4cccs4)ccc32)CC1` [Compound 137, N-(3-((1s,4s)-4-(propylamino)cyclohexyl)-1H-indol-6-yl)thiophene-2-carboximidamide] were 8.26 µM, 0.2 µM, 5.54 µM and 27.02.
On to `CCCN[C@H]1CC[C@H](c2c[nH]c3cc(NC(=N)c4cccs4)ccc32)CC1` [Compound 138, N-(3-((1r,4r)-4-(propylamino)cyclohexyl)-1H-indol-6-yl)thiophene-2-carboximidamide], for which the Ratio e/n in assay [3] stood at 15.83. In addition, the IC50 was determined as 0.72 µM in assay [3] (setting [9]) and 11.4 µM in assay [2] (read-out: Human eNOS).
With `CC(C)NC1CCC(c2c[nH]c3cc(NC(=N)c4cccs4)ccc23)CC1` (stereo not drawn) [Compound 142], the Ratio e/n in assay [3] is listed as 23.6. The IC50 worked out at 0.29 µM in assay [3] (setting [9]) and 6.99 µM in assay [2] (read-out: Human eNOS).
With `COC(=O)[C@@H](N)CCCNC(=N)N[N+](=O)[O-]` [L-NAME], the patient mortality in assay [5] was 27%.
Turning to `CN=C(N)NCCC[C@H](N)C(=O)O.Cl` [L-NMMA, L-N^G methylarginine hydrochloride], the survival rate in assay [6] was 72%. Moreover, in the assay with migraine patients [7], the response rate is recorded as 67%.
As to `C/C1=C2/[N-][C@H]([C@H](CC(N)=O)[C@@]2(C)CCC(=O)NC[C@@H](C)OP(=O)([O-])O[C@H]2[C@@H](O)[C@@H](n3cnc4cc(C)c(C)cc43)O[C@@H]2CO)[C@]2(C)N=C(/C(C)=C3N=C(/C=C4N=C1[C@@H](CCC(N)=O)C\4(C)C)[C@@H](CCC(N)=O)[C@]\3(C)CC(N)=O)[C@@H](CCC(N)=O)[C@]2(C)CC(N)=O.[Co+3].[OH-]` [hydroxycobalamin], the “patients with a 50% reduction in the frequency of migraine attack” value in the assay with migraine patients [8] was 53%.
